Entries after “also recorded” stand apart in the source; their conditions may differ. Like-named read-outs stand apart in the source and are kept apart here.
Legend:
[1] = test system: Salmonella typhimurium TA97, TA98, TA100 and TA102; assay: Ames test; assay type: cell-based; conditions: 0.5-5000.0 μg/plate, presence or absence of S9
Procedure: His^− type Salmonella typhimurium TA97, TA98, TA100 and TA102 were employed. Concentration of the test compound was 0.5, 5.0, 50.0, 500.0, 5000.0 μg/plate. S9 was the microsome component of liver homogenate of a rat weighted 200 g. The test compound 149 was tested in the presence or absence of S9.
According to the Salmonella typhimurium/mammalian microsome enzyme mutagenic test method revised by Ames (1983), metabolism activated or non-metabolism activated plate incorporation assay was conducted on compound 149, and the strain which passed the assay was seeded to the culture medium and incubated at 37° C. under shaking for 15 hours. 100 μl compound solutions with various concentrations were added to 0.1 ml of the culture liquid, and then S9 mixture or phosphate buffer was added, and the mixtures were incubated in a 37° C. water bath for 20 minutes. After that, 2 ml of upper layer agar was added, mixed well and poured into a plate with lower layer agar and incubated at 37° C. for 48 hours. The number of the colonies in each plate was counted.

[2] = Primary acute toxicity test; assay type: in vivo; conditions: mice
Procedure: 5 g/kg and 10 g/kg of compound 149 were administered orally to mice once and observed for 14 days. Body weights of 48 hours after administration in mice were no different. At 14th day after administration, the mouse average body weights in 5 g/kg and 10 g/kg groups increased 7 g and 5 g respectively. There was no any other different for every animal and no death were observed.

[3] = test system: chronic renal failure induced by 5/6 nephrectomy in rats; assay type: in vivo, Male Wistar rats
Procedure: The model on chronic renal failure induced by partial renal ablation in rats was set up according to the Guidelines of Pre-clinic Research for New Drugs. Male Wistar rats with initial body weights of 200 g, anesthetized with 35 mg/kg of pentobarbital i.p., the right kidney was removed, and the upper and lower pole […] of the left kidney were resected, stop bleeding, closed the abdominal and sutured. Four weeks following surgery, the BUN, creatinine and urinary protein in rats were determined. […] Rats were randomly divided into seven groups, 30/group, with sham, model, Benazepril (4 mg/kg/day) and Losartan (10 mg/kg/day) as positive control, and compound 149 groups (7.5 mg/kg/day, 15 mg/kg/day and 30 mg/kg/day, respectively). All the groups were administered intragastrically, once per day and 6 (six) times per week, till 16 weeks post surgery. Body weights were weighed to observe the growth of the rats. The above indexes were determined every 4 weeks up to the 16th week following the initiation of drug administration, and at each time, a number of animals were sacrificed and the kidneys were harvested for pathological analysis. Pathological lesions in chronic renal failure models are mainly glomerulosclerosis and interstitial fibrosis. According to the damage extents, glomerulosclerosis is divided into five grades (0 IV). 0 grade means no glomerulus pathological changes at all, and IV grade means ultimately glomerular sclerosis and glassy pathological changes.

[4] = test system: kidney tubulointerstitial fibrosis caused by unilateral ureteral obstruction (UUO) in rats; assay: Inhibition of kidney tubulointerstitial fibrosis caused by unilateral ureteral obstruction (UUO) in rats; assay type: in vivo, Male Wistar rats; conditions: for BUN / Scr. (serum creatinine): oral for 16 days
Procedure: Male Wistar rats with initial body weights of 180˜230 g were used. Unilateral ureteral obstruction was performed under pentobarbital anesthesia (35 mg/kg) and sterile conditions. Via a midline incision, the left ureteral was ligated. Sham surgery was performed by making a midline incision but leaving ureteral intact. Following surgery, rats were randomly divided into sham, model, Benazepril (4 mg/kg/day) and Losartan (10 mg/kg/day) as positive control, and compound 149 (5 mg/kg/day, 10 mg/kg/day and 20 mg/kg/day). Starting 2 day before surgery, Benazepril, Losartan and compound 149 were administered for 16 days orally. BUN and creatinine in serum were determined in the 11th and 16th day (Table 6) following initiation of Benazepril, Losartan and compound 149 treatment, at which time animals were killed and the kidneys were harvested. Tissues were dissected, weighed, fixed in 10% formaldehyde and embedded in paraffin wax for pathological analysis.

[5] = 8th week after administration (12 weeks after nephrectomy), 7.5 mg/kg
[6] = 8th week after administration (12 weeks after nephrectomy), 15 mg/kg
[7] = 8th week after administration (12 weeks after nephrectomy), 30 mg/kg
[8] = 8th week after administration (12 wk after nephrectomy), 7.5 mg/kg
[9] = 8th week after administration (12 wk after nephrectomy), 15 mg/kg
[10] = 8th week after administration (12 wk after nephrectomy), 30 mg/kg
[11] = 12th week after administration (16 weeks after nephrectomy), 7.5 mg/kg
[12] = 12th week after administration (16 weeks after nephrectomy), 15 mg/kg
[13] = 12th week after administration (16 weeks after nephrectomy), 30 mg/kg
[14] = 12th week after administration (16 wk after nephrectomy), 7.5 mg/kg
[15] = 12th week after administration (16 wk after nephrectomy), 15 mg/kg
[16] = 12th week after administration (16 wk after nephrectomy), 30 mg/kg

Cc1c(O)c([N+](=O)[O-])cc2cc(C(=O)Nc3ccc(O)c(C(=O)O)c3)c(=O)oc12 [Compound 149, 3-(3′-carboxy-4′-hydroxy-phenylamidocarbonyl)-6-nitro-7-hydroxy-8-methyl-coumarin]
mutagenesis (Ames test result) [1]: no mutagenesis; also recorded: negative
number of colony formation of Salmonella Typhimurium TA97, TA98, TA100 and TA102 [1]: did not increase
death ([2]; 5 g/kg and 10 g/kg, observed for 14 days): no death
increase of average body weights at 14th day after administration ([2]; oral once, 5 g/kg): 7 g
Body weights of 48 hours after administration ([2]; oral once, 5 g/kg and 10 g/kg): no different
increase of average body weights at 14th day after administration ([2]; oral once, 10 g/kg): 5 g
various parameters (BUN, Cre, TGF-β1, Ang II) compared with the positive controls Benazepril and Losartan ([3]; 5/6 nephrectomy rats): all better than those of the Benazepril group and are equivalent to those of the Losartan group
BUN [3, 5]: 22.35 ± 3.120 mg/dL
serum creatinine (Scr.) [3, 5]: 2.14 ± 0.500 mg/dL
BUN [3, 6]: 26.04 ± 4.234 mg/dL
serum creatinine (Scr.) [3, 6]: 1.80 ± 0.550 mg/dL
BUN [3, 7]: 30.54 ± 11.697 mg/dL
serum creatinine (Scr.) [3, 7]: 1.89 ± 0.184 mg/dL
AII (Angiotensin II) [3, 8]: 63.9 ± 13.2 pg/mL
UP (urinary protein) [3, 8]: 30.1 ± 16.6 mg/day
serum TGF-β1 [3, 8]: 20.0 ± 6.7 ng/mL
AII (Angiotensin II) [3, 9]: 49.9 ± 21.3 pg/mL
UP (urinary protein) [3, 9]: 30.4 ± 16.2 mg/day
serum TGF-β1 [3, 9]: 18.6 ± 12.2 ng/mL
AII (Angiotensin II) [3, 10]: 41.0 ± 12.5 pg/mL
UP (urinary protein) [3, 10]: 34.3 ± 12.1 mg/day
serum TGF-β1 [3, 10]: 18.9 ± 10.1 ng/mL
Glomerulosclerosis Grade (%): 0 ([3]; 8 wk after ad., 7.5 mg/kg): 15.7 ± 19.0%
Glomerulosclerosis Grade (%): I ([3]; 8 wk after ad., 7.5 mg/kg): 24.0 ± 21.1%
Glomerulosclerosis Grade (%): II ([3]; 8 wk after ad., 7.5 mg/kg): 30.0 ± 20.8%
Glomerulosclerosis Grade (%): III ([3]; 8 wk after ad., 7.5 mg/kg): 23.2 ± 28.5%
Glomerulosclerosis Grade (%): IV ([3]; 8 wk after ad., 7.5 mg/kg): 8.0 ± 13.0%
Glomerulosclerosis Total Grade ([3]; 8 wk after ad., 7.5 mg/kg): 5.7 ± 2.9
Glomerulosclerosis Grade (%): 0 ([3]; 8 wk after ad., 15 mg/kg): 37.5 ± 29.3 %
Glomerulosclerosis Grade (%): I ([3]; 8 wk after ad., 15 mg/kg): 27.5 ± 16.3%
Glomerulosclerosis Grade (%): II ([3]; 8 wk after ad., 15 mg/kg): 18.8 ± 9.9%
Glomerulosclerosis Grade (%): III ([3]; 8 wk after ad., 15 mg/kg): 13.3 ± 20.7%
Glomerulosclerosis Grade (%): IV ([3]; 8 wk after ad., 15 mg/kg): 2.9 ± 8.2%
Glomerulosclerosis Total Grade ([3]; 8 wk after ad., 15 mg/kg): 3.9 ± 1.7
Glomerulosclerosis Grade (%): 0 ([3]; 8 wk after ad., 30 mg/kg): 28.3 ± 20.8%
Glomerulosclerosis Grade (%): I ([3]; 8 wk after ad., 30 mg/kg): 34.2 ± 23.0%
Glomerulosclerosis Grade (%): II ([3]; 8 wk after ad., 30 mg/kg): 7.5 ± 8.8 %
Glomerulosclerosis Grade (%): III ([3]; 8 wk after ad., 30 mg/kg): 17.5 ± 30.7%
Glomerulosclerosis Grade (%): IV ([3]; 8 wk after ad., 30 mg/kg): 6.7 ± 13.4%
Glomerulosclerosis Total Grade ([3]; 8 wk after ad., 30 mg/kg): 4.9 ± 3.5
BUN [3, 11]: 39.42 ± 4.686 mg/dL
serum creatinine (Scr.) [3, 11]: 2.73 ± 0.78 mg/dL
BUN [3, 12]: 37.32 ± 5.467 mg/dL
serum creatinine (Scr.) [3, 12]: 2.63 ± 0.38 mg/dL
BUN [3, 13]: 36.60 ± 5.422 mg/dL
serum creatinine (Scr.) [3, 13]: 2.10 ± 0.71 mg/dL
AII (Angiotensin II) [3, 14]: 48.3 ± 48.5 pg/mL
UP (urinary protein) [3, 14]: 66.7 ± 38.8 mg/day
serum TGF-β1 [3, 14]: 13.6 ± 7.1 ng/mL
AII (Angiotensin II) [3, 15]: 41.3 ± 28.4 pg/mL
UP (urinary protein) [3, 15]: 52.3 ± 34.4 mg/day
serum TGF-β1 [3, 15]: 12.3 ± 7.7 ng/mL
AII (Angiotensin II) [3, 16]: 19.2 ± 9.19 pg/mL
UP (urinary protein) [3, 16]: 48.2 ± 31.6 mg/day
serum TGF-β1 [3, 16]: 11.6 ± 6.7 ng/mL
Glomerulus pathological scores, compared with the model group ([3]; 12 weeks after nephrectomy (8 weeks since administration), compound 149 30 mg/kg, Losartan 10 mg/kg/day): less than that of the model group significantly
rates of 0 grade glomerylus in residual kidney, compared with the model group ([3]; 12 weeks after nephrectomy (8 weeks since administration), compound 149 30 mg/kg, Losartan 10 mg/kg/day, P<0.05): higher than that of the model group with significant difference
Glomerulosclerosis Grade (%): 0 ([3]; 12 wk after ad., 7.5 mg/kg): 0%
Glomerulosclerosis Grade (%): I ([3]; 12 wk after ad., 7.5 mg/kg): 2.3 ± 6.3%
Glomerulosclerosis Grade (%): II ([3]; 12 wk after ad., 7.5 mg/kg): 37.1 ± 16.0%
Glomerulosclerosis Grade (%): III ([3]; 12 wk after ad., 7.5 mg/kg): 51.4 ± 8.6%
Glomerulosclerosis Grade (%): IV ([3]; 12 wk after ad., 7.5 mg/kg): 13.8 ± 20.6%
Glomerulosclerosis Total Grade ([3]; 12 wk after ad., 7.5 mg/kg): 8.6 ± 1.9
Glomerulosclerosis Grade (%): 0 ([3]; 12 wk after ad., 15 mg/kg): 0%
Glomerulosclerosis Grade (%): I ([3]; 12 wk after ad., 15 mg/kg): 8.1 ± 14.1%
Glomerulosclerosis Grade (%): II ([3]; 12 wk after ad., 15 mg/kg): 38.1 ± 27.4%
Glomerulosclerosis Grade (%): III ([3]; 12 wk after ad., 15 mg/kg): 46.2 ± 26.1%
Glomerulosclerosis Grade (%): IV ([3]; 12 wk after ad., 15 mg/kg): 9.1 ± 12.6%
Glomerulosclerosis Total Grade ([3]; 12 wk after ad., 15 mg/kg): 7.7 ± 1.7
Glomerulosclerosis Grade (%): 0 ([3]; 12 wk after ad., 30 mg/kg): 0%
Glomerulosclerosis Grade (%): I ([3]; 12 wk after ad., 30 mg/kg): 2.0 ± 4.5%
Glomerulosclerosis Grade (%): II ([3]; 12 wk after ad., 30 mg/kg): 71.3 ± 11.5 %
Glomerulosclerosis Grade (%): III ([3]; 12 wk after ad., 30 mg/kg): 26.7 ± 7.8 %
Glomerulosclerosis Grade (%): IV ([3]; 12 wk after ad., 30 mg/kg): 0%
Glomerulosclerosis Total Grade ([3]; 12 wk after ad., 30 mg/kg): 6.7 ± 0.2
number of grade III glomerulus, compared with the model group ([3]; 16 weeks after nephrectomy (12 weeks since administration), compound 149 30 mg/kg (P<0.01), Losartan 10 mg/kg/day (P<0.05)): less than that of the model group significantly
affection with the major organs such as heart, liver, spleen, and lungs (pathological results) ([3]; rat, in vivo): no significant affection
improvement of each biochemical index compared with the positive controls ([4]; UUO rats): more significant than those of the Losartan group, and equivalent to those of the Benazepril group
inflammatory cell infiltration and tubulointerstitial fibrosis (pathological changes) ([4]; UUO rats): significantly attenuated
pathological results compared with the positive controls ([4]; UUO rats): better than Benazepril and equivalent with Losartan
BUN ([4]; UUO rats, 5.0 mg/kg): 23.71 ± 4.17 mg/dL
Scr. (serum creatinine) ([4]; UUO rats, 5.0 mg/kg): 1.58 ± 0.49 mg/kg
BUN ([4]; UUO rats, 10.0 mg/kg): 20.76 ± 1.56 mg/dL
Scr. (serum creatinine) ([4]; UUO rats, 10.0 mg/kg): 1.61 ± 0.36 mg/kg
BUN ([4]; UUO rats, 20.0 mg/kg): 20.77 ± 2.04 mg/dL
Scr. (serum creatinine) ([4]; UUO rats, 20.0 mg/kg): 1.60 ± 0.14 mg/kg
overall result in the renal interstitial fibrosis model compared with the positive controls ([4]; unilateral ureteral ligation in rats): better than Benazepril and corresponds to (slightly better than) Losartan

— patent US8338401B2, “Coumarin-amide derivatives and its preparation, said drug composition and its use” (Institute of Materia Medica Chinese Academy of Medical …, priority 2002, dated 2012)
